Source: ChEMBL document CHEMBL1201862, “PubChem BioAssay data set” (2004)
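1) Cells in 96-well plates. 2) Compound, 48 h, 5 concentrations. 3) Linear interpolation between surrounding doses. 4) Unreached endpoint = highest concentration. GI50 marks 50% less growth.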 Activity calls are given as the source filed them. No stated cut-off is given here; in the data, active = GI50 up to about 1.1 µM and inactive = higher.

Key:
Assay in all cases: NCI tumour cell line growth inhibition, 48 h
SK-OV-3 = system: SK-OV-3
NCI-H23 = system: NCI-H23
KM12 = system: KM12
A549 = system: A549
CCRF-CEM = system: CCRF-CEM
MOLT-4 = system: MOLT-4
Malme-3M = system: Malme-3M
RXF 393 = system: RXF 393
HOP-92 = system: HOP-92
786-0 = system: 786-0
SK-MEL-5 = system: SK-MEL-5
HOP-18 = system: HOP-18
SK-MEL-2 = system: SK-MEL-2
A498 = system: A498
SK-MEL-28 = system: SK-MEL-28
M19-MEL = system: M19-MEL
SR = system: SR
OVCAR-8 = system: OVCAR-8
SNB-19 = system: SNB-19
NCI-H522 = system: NCI-H522
HCT-116 = system: HCT-116
OVCAR-3 = system: OVCAR-3
DLD-1 = system: DLD-1
OVCAR-5 = system: OVCAR-5
COLO 205 = system: COLO 205
SF-295 = system: SF-295
HCC 2998 = system: HCC 2998
ACHN = system: ACHN
KM-20L2 = system: KM-20L2
SF-539 = system: SF-539
K562 = system: K562
OVCAR-4 = system: OVCAR-4
UACC-257 = system: UACC-257
SW-620 = system: SW-620
LXFL 529 = system: LXFL 529
TK-10 = system: TK-10
M14 = system: M14
UO-31 = system: UO-31
IGROV-1 = system: IGROV-1
DMS-273 = system: DMS-273
HCT-15 = system: HCT-15
NCI-H226 = system: NCI-H226
LOX IMVI = system: LOX IMVI
SN12C = system: SN12C
HT-29 = system: HT-29
CAKI-1 = system: CAKI-1
UACC-62 = system: UACC-62
U-251 = system: U-251
NCI-H460 = system: NCI-H460
SNB-78 = system: SNB-78
EKVX = system: EKVX
RPMI-8226 = system: RPMI-8226
XF498 = system: XF498
HOP-62 = system: HOP-62
SNB-75 = system: SNB-75
DMS-114 = system: DMS-114
HL-60 = system: HL-60
SF-268 = system: SF-268
RXF 631 = system: RXF 631

In the case of `CC(=O)Oc1cc2c(=O)oc3c(OC(C)=O)c(OC(C)=O)c(OC(C)=O)c4c(=O)oc(c1OC(C)=O)c2c34`, the GI50 (SK-OV-3) is reported as 36.3 µM (inactive), the GI50 (NCI-H23) is reported as > 100 µM (inactive) and the GI50 (KM12) is reported as > 100 µM (inactive). The GI50 (A549) was > 100 µM (inactive), the GI50 (CCRF-CEM) was 19.2 µM (inactive) and the GI50 (MOLT-4) was 58.7 µM (inactive). For the same molecule, the GI50 (Malme-3M) was 29.4 µM (inactive), the GI50 (RXF 393) was 6.18 µM (inactive) and the GI50 (HOP-92) was 25.2 µM (inactive). For the same molecule, the GI50 (786-0) was 38 µM (inactive), the GI50 (SK-MEL-5) was 61.1 µM (inactive) and the GI50 (HOP-18) was 32.1 µM (inactive). For the same molecule, the GI50 (SK-MEL-2) was 28.8 µM (inactive), the GI50 (A498) was 65 µM (inactive) and the GI50 (SK-MEL-28) was 32.7 µM (inactive). For the same molecule, the GI50 (M19-MEL) was 17.9 µM (inactive), the GI50 (SR) was 24.8 µM (inactive) and the GI50 (OVCAR-8) was 56.6 µM (inactive). For the same molecule, the GI50 (SNB-19) was 73.8 µM (inactive), the GI50 (NCI-H522) was 37.4 µM (inactive) and the GI50 (HCT-116) was 24 µM (inactive). For the same molecule, the GI50 (OVCAR-3) was > 100 µM (inactive), the GI50 (DLD-1) was > 100 µM (inactive) and the GI50 (OVCAR-5) was 94.6 µM (inactive). The GI50 (COLO 205) was 59 µM (inactive), the GI50 (SF-295) was 20.8 µM (inactive) and the GI50 (HCC 2998) was > 100 µM (inactive). The GI50 (ACHN) was 48.3 µM (inactive), the GI50 (KM-20L2) was 35.3 µM (inactive) and the GI50 (SF-539) was 24.8 µM (inactive). The GI50 (K562) was 53.5 µM (inactive), the GI50 (OVCAR-4) was 41.9 µM (inactive) and the GI50 (UACC-257) was 45.5 µM (inactive). For the same molecule, the GI50 (SW-620) was 34.5 µM (inactive), the GI50 (LXFL 529) was > 100 µM (inactive) and the GI50 (TK-10) was > 100 µM (inactive). The GI50 (M14) was 36.6 µM (inactive), the GI50 (UO-31) was 97.7 µM (inactive) and the GI50 (IGROV-1) was > 100 µM (inactive). For the same molecule, the GI50 (DMS-273) was > 100 µM (inactive), the GI50 (HCT-15) was > 100 µM and the GI50 (NCI-H226) was 43.9 µM (inactive). The GI50 (LOX IMVI) was 15.6 µM (inactive), the GI50 (SN12C) was 29 µM (inactive) and the GI50 (HT-29) was 37.9 µM (inactive). For the same molecule, the GI50 (CAKI-1) was > 100 µM (inactive), the GI50 (UACC-62) was 33.2 µM (inactive) and the GI50 (U-251) was 36.6 µM (inactive). For the same molecule, the GI50 (NCI-H460) was 34.7 µM (inactive), the GI50 (SNB-78) was 39.4 µM (inactive) and the GI50 (EKVX) was 74 µM (inactive). The GI50 (RPMI-8226) was 73.8 µM (inactive), the GI50 (XF498) was 32.5 µM (inactive) and the GI50 (HOP-62) was > 100 µM (inactive). For the same molecule, the GI50 (SNB-75) was 45.9 µM (inactive), the GI50 (DMS-114) was 21.6 µM (inactive) and the GI50 (HL-60) was 56 µM (inactive). For the same molecule, the GI50 (SF-268) was 48.4 µM (inactive) and the GI50 (RXF 631) was 25.4 µM (inactive).

In the case of `C/C(CC(=O)Nc1cccc(C)c1C)=N\NC(N)=S`, the GI50 (SK-OV-3) is reported as > 100 µM (inactive), the GI50 (NCI-H23) is reported as > 100 µM (inactive) and the GI50 (KM12) is reported as > 100 µM (inactive). For the same molecule, the GI50 (A549) was > 100 µM (inactive), the GI50 (CCRF-CEM) was 74.3 µM (inactive) and the GI50 (MOLT-4) was > 100 µM (inactive). The GI50 (Malme-3M) was > 100 µM (inactive), the GI50 (RXF 393) was > 100 µM (inactive) and the GI50 (HOP-92) was > 100 µM (inactive). For the same molecule, the GI50 (786-0) was > 100 µM (inactive), the GI50 (SK-MEL-5) was > 100 µM (inactive) and the GI50 (HOP-18) was > 100 µM (inactive). For the same molecule, the GI50 (SK-MEL-2) was > 100 µM (inactive), the GI50 (A498) was > 100 µM (inactive) and the GI50 (SK-MEL-28) was > 100 µM (inactive). The GI50 (M19-MEL) was > 100 µM (inactive), the GI50 (SR) was 26.2 µM (inactive) and the GI50 (OVCAR-8) was > 100 µM (inactive). For the same molecule, the GI50 (SNB-19) was > 100 µM (inactive), the GI50 (NCI-H522) was > 100 µM (inactive) and the GI50 (HCT-116) was 88.7 µM (inactive). The GI50 (OVCAR-3) was > 100 µM (inactive), the GI50 (DLD-1) was > 100 µM (inactive) and the GI50 (OVCAR-5) was > 100 µM (inactive). For the same molecule, the GI50 (COLO 205) was > 100 µM (inactive), the GI50 (SF-295) was > 100 µM (inactive) and the GI50 (HCC 2998) was > 100 µM (inactive). The GI50 (ACHN) was > 100 µM (inactive), the GI50 (KM-20L2) was > 100 µM (inactive) and the GI50 (SF-539) was > 100 µM (inactive). The GI50 (K562) was > 100 µM (inactive), the GI50 (OVCAR-4) was > 100 µM (inactive) and the GI50 (UACC-257) was > 100 µM (inactive). The GI50 (LXFL 529) was > 100 µM (inactive), the GI50 (TK-10) was > 100 µM (inactive) and the GI50 (M14) was > 100 µM (inactive). The GI50 (UO-31) was > 100 µM (inactive), the GI50 (IGROV-1) was > 100 µM (inactive) and the GI50 (DMS-273) was > 100 µM (inactive). For the same molecule, the GI50 (HCT-15) was 41.8 µM, the GI50 (NCI-H226) was > 100 µM (inactive) and the GI50 (LOX IMVI) was > 100 µM (inactive). For the same molecule, the GI50 (SN12C) was > 100 µM (inactive), the GI50 (HT-29) was > 100 µM (inactive) and the GI50 (CAKI-1) was > 100 µM (inactive). For the same molecule, the GI50 (UACC-62) was > 100 µM (inactive), the GI50 (U-251) was > 100 µM (inactive) and the GI50 (NCI-H460) was > 100 µM (inactive). For the same molecule, the GI50 (SNB-78) was > 100 µM (inactive), the GI50 (EKVX) was > 100 µM (inactive) and the GI50 (RPMI-8226) was 40.8 µM (inactive). For the same molecule, the GI50 (XF498) was > 100 µM (inactive), the GI50 (HOP-62) was > 100 µM (inactive) and the GI50 (SNB-75) was > 100 µM (inactive). For the same molecule, the GI50 (DMS-114) was 41.7 µM (inactive), the GI50 (HL-60) was > 100 µM (inactive) and the GI50 (SF-268) was > 100 µM (inactive). For the same molecule, the GI50 (RXF 631) was 91.2 µM (inactive).
